Laboratory results published in patent US20240299328A1, “COMPOSITIONS COMPRISING 15-HEPE AND METHODS OF TREATING AND/OR PREVENTING HEMATOLOGIC DISORDERS AND RELATED DISEASES” (Afimmune Limited, priority 2023, published 2024).
Marks after values point to notes of the source that are not given here.

Legend:
Sprague Dawley rats = experiment: 26 week rat toxicity study: coagulation; format: in vivo; conditions: male rats, 26 weeks
Description: The test and control items were administered to the appropriate animals by once daily oral gavage 7 days a week for a minimum of 26 weeks. The volume for each animal was based on the most recent body weight measurements. The doses were given using a syringe with attached gavage cannula. The first day of dosing was designated as Day 1. The dosing formulations were removed from the refrigerator and stirred for at least 30 minutes before dosing. The dosing formulations were also stirred continuously during dosing.
Sample Collection: Blood was collected via the tail vein unless immediately prior to necropsy, when blood was collected from the orbital sinus under non-recoverable isoflurane anesthesia. Blood was collected in ascending animal order unless samples were collected prior to necropsy where the order of euthanasia was followed. Additional blood samples were obtained (e.g., due to clotting of non-serum samples) if permissible sampling frequency and blood volume were not exceeded. After collection, samples were transferred to the appropriate laboratory for processing. Samples were collected according to the following table.
Coagulation: A 0.5 mL blood sample was collected using the anticoagulant 3.8% (w/v) trisodium citrate for processing to plasma. To assess coagulation the following coagulation parameters were measured.
Animals: The study used male and female Sprague Dawley rats purchased from Charles River UK Limited (Margate, Kent, UK). The target age at the initial dosing was 7-8 weeks. The target weight at the initial dosing was 175-300 g (males) and 120-250 g (females). Each animal was identified using a subcutaneously implanted electronic cylindrical, “glass-sealed” TROVAN microchip.

[1] = tested on: α-SMA, TIMP-1, TGF-β and Collagen Type 1 mRNA; experiment: UUO study: quantitative RT-PCR of kidney; format: in vivo; conditions: UUO mice kidney, normalized to 36B4, Day 14, mean ± SD
Description: Quantitative RT-PCR: Total ribonucleic acid (RNA) was extracted from kidney samples using RNAiso. One μg of RNA was reverse-transcribed using a reaction mixture containing […] (mM) of magnesium chloride (MgCl2), 40 U RNase inhibitor, 0.5 mM dNTP, 6.28 µM random hexamer, 5× first strand buffer, 10 mM dithiothreitol and 200 U MMLV-RT in a final volume of 20 μL. The reaction was carried out for 1 hour at 37° C., followed by 5 minutes at 99° C. Real-time PCR was performed using real-time PCR DICE and TB Green™ Premix Ex Taq™ II. To calculate the relative […] (mRNA) expression level, the expression of each gene (e.g., α-SMA, TIMP-1, TGF-β and Collagen Type 1) was normalized to that of reference gene 36B4 (gene symbol: Rplp0). Information regarding the PCR-primer sets and the plate layout are described in Tables 1 and 2.

[2] = tested on: protein and lipid biomarkers of NAFLD patients; experiment: Phase IIa NAFLD study: lipidomics and proteomics of blood samples; format: in vivo, human
From the text: Exploratory analysis: The exploratory analysis included analysis of lipid and metabolic parameters including total cholesterol, triglycerides, very low-density lipoprotein cholesterol (VLDL-C), low density lipoprotein cholesterol (LDL-C), high density lipoprotein cholesterol (HDL-C), non-high-density lipoprotein cholesterol (non-HDL-C), remnant-like particle cholesterol (RLP-C), fasting glucose, insulin, free fatty acids and hemoglobin A1C (HbA1C). Additional exploratory analysis included high throughput lipidomics and proteomics.

[3] = tested on: α-SMA, TIMP-1, TGF-β and Collagen Type 1 mRNA; experiment: BDL study: quantitative RT-PCR of liver; format: in vivo; conditions: BDL mice liver, normalized to 36B4, Day 14, mean ± SD
Description: Quantitative RT-PCR: Total ribonucleic acid (RNA) was extracted from liver samples using RNAiso. One μg of RNA was reverse-transcribed using a reaction mixture containing 4.4 mM magnesium chloride (MgCl2), 40 U RNase inhibitor, 0.5 mM dNTP, 6.28 μM random hexamer, 5× first strand buffer, 10 mM dithiothreitol and 200 U MMLV-RT in a final volume of 20 μL. The reaction was carried out for 1 hour at 37° C., followed by 5 minutes at 99° C. Real-time PCR was performed using real-time PCR DICE and TB Green™ Premix Ex Taq™ II. To calculate the relative mRNA expression level, the expression of each gene (α-SMA, TIMP-1, TGF-β and Collagen Type 1) was normalized to that of reference gene 36B4 (gene symbol: Rplp0). Information regarding the PCR-primer sets and the plate layout are described in Tables 8 and 9.

[4] = tested on: TGF-β signaling in HepG2 cells; experiment: TGF-β-induced EMT protein expression and type II TGF-β receptor in HepG2 cells; format: cell-based, human; conditions: liver cell lines (HepG2, LX2)
Description: The effects of 15-HEPE on TGF-β-induced signaling and cellular responses were determined. To test the effect of 15-HEPE on TGF-β-induced signaling, the activities of 15-HEPE to regulate TGF-β-stimulated Smad2 phosphorylation and nuclear translocation, both of which are key signaling events leading to TGF-β-induced cellular responses, were tested. One important biological activity of TGF-β is transcriptional activation of genes responsible for epithelial-mesenchymal transition (EMT), which is a crucial event in wound healing, tissue fibrosis, and cancer progression. The effect of 15-HEPE on TGFβ-induced epithelial mesenchymal transition related proteins (such as fibronectin, PAI-1, and N-cadherin etc.) expression in HepG2 and LXR cells were assessed. HepG2 cells (human hepatoma cell line) were treated in increasing doses of 15-HEPE stage II in DMEM containing 0.1% of FBS for 1 hour and continually stimulated with or without 200 picomolar (pM) of TGF-β for 48 hours. […] HepG2 cells (human hepatoma cell line) were treated in increasing doses of 15-HEPE stage II in DMEM containing 0.1% of FBS for 1 hour and continually stimulated with or without 200 picomolar (pM) of TGF-β for 48 hours. The two panels shown in FIG. 18A are two separate experiments run under the same experimental conditions.

[5] = 6000/3000 mg/kg/day oral gavage

In the case of `CC/C=C\C[C@H](O)/C=C/C=C\C/C=C\C/C=C\CCCC(=O)OCC` [DS102, 15(S)-hydroxy-(5Z,8Z,11Z,13E,17Z)-eicosapentaenoic acid ethyl ester], the “Activated Partial Thromboplastin Time (APTT), Mean” value (Sprague Dawley rats; 2000 mg/kg/day oral gavage) is reported as 15.03* sec, the “Fibrinogen (FIB), Mean” value (Sprague Dawley rats; 2000 mg/kg/day oral gavage) is reported as 2.35** g/L and the “Prothrombin Time (PT), Mean” value (Sprague Dawley rats; 2000 mg/kg/day oral gavage) is reported as 10.69** sec. For the same molecule, the “Activated Partial Thromboplastin Time (APTT), Mean” value (Sprague Dawley rats; [5]) was 15.73** sec, the “Fibrinogen (FIB), Mean” value (Sprague Dawley rats; [5]) was 2.26** g/L and the “Prothrombin Time (PT), Mean” value (Sprague Dawley rats; [5]) was 10.81** sec. For the same molecule, the “Alpha-SMA mRNA expression level” value ([1]; 50 mg/kg PO QD Day 0-13) was 3.74 ± 0.81, the “Collagen Type 1 mRNA expression level” value ([1]; 50 mg/kg PO QD Day 0-13) was 11.80 ± 1.78 and the “TGF-β mRNA expression level” value ([1]; 50 mg/kg PO QD Day 0-13) was 4.31 ± 0.69. For the same molecule, the “TIMP-1 mRNA expression level” value ([1]; 50 mg/kg PO QD Day 0-13) was 138.30 ± 30.39, the “Alpha-SMA mRNA expression level” value ([1]; 500 mg/kg PO QD Day 0-13) was 5.54 ± 1.54 and the “Collagen Type 1 mRNA expression level” value ([1]; 500 mg/kg PO QD Day 0-13) was 14.09 ± 2.88. For the same molecule, the “TGF-β mRNA expression level” value ([1]; 500 mg/kg PO QD Day 0-13) was 5.37 ± 0.76, the “TIMP-1 mRNA expression level” value ([1]; 500 mg/kg PO QD Day 0-13) was 124.80 ± 28.60 and the “expression of multiple circulating chemokines” value [2] was “decreased”. The “expression of multiple proteins associated with increased cardiovascular risk” value [2] was “decreased”, the “expression of multiple tumor necrosis factor receptor superfamily members” value [2] was “decreased” and the “expression of multiple vascular adhesion molecules” value [2] was “decreased”. For the same molecule, the “TR (transferrin receptor protein 1)” value ([2]; 1 g) was “significant reductions”, the “NASH drug development targets (CCR2/5 signaling, Galectin3, AOC3)” value ([2]; 2 g) was “decreased” and the “levels of multiple glycerophospholipid groups” value ([2]; 2 g) was “significantly increased”. The “levels of multiple hepatotoxic diglycerides” value ([2]; 2 g) was “significantly decreased”, the “inflammatory and pro-fibrotic proteins (Table 19: PAI-1, TIMP-1, DPP4, TLT2, CCL16, MCP-1, SAA4, PI3/Elafin, TR, LILRB1, TNRSF11A)” value ([2]; 2 g, Bonferroni and Benjamini-Hochberg testing) was “decreased” and the “number of markers (inflammation, fibrosis, lipid metabolism, apoptosis, chemotaxis) with significantly downregulated expression” value ([2]; 2 g, panel of greater than 350 protein biomarkers) was “over 150”. The “Alpha-SMA mRNA expression level” value ([3]; 50 mg/kg PO QD Day 0-13) was 3.21 ± 1.67, the “Collagen Type 1 mRNA expression level” value ([3]; 50 mg/kg PO QD Day 0-13) was 4.94 ± 2.76 and the “TGF-β mRNA expression level” value ([3]; 50 mg/kg PO QD Day 0-13) was 1.48 ± 0.48. For the same molecule, the “TIMP-1 mRNA expression level” value ([3]; 50 mg/kg PO QD Day 0-13) was 43.82 ± 26.19, the “Alpha-SMA mRNA expression level” value ([3]; 250 mg/kg PO QD Day 0-13) was 2.66 ± 1.33 and the “Collagen Type 1 mRNA expression level” value ([3]; 250 mg/kg PO QD Day 0-13) was 4.21 ± 1.90. The “TGF-β mRNA expression level” value ([3]; 250 mg/kg PO QD Day 0-13) was 1.50 ± 0.44, the “TIMP-1 mRNA expression level” value ([3]; 250 mg/kg PO QD Day 0-13) was 30.65 ± 16.80 and the TGF-β signaling [4] was “directly inhibit”.
